Activity calls are given as the source filed them. How the calls were made is not given here.
System: rodent carcinogenicity bioassays, tumor incidence
Experiment: CCRIS carcinogenicity studies
How it was run: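 Archive of carcinogenicity, mutagenicity, tumor promotion and tumor inhibition results drawn from journals, NCI reports and other sources, expert-reviewed; covers 1985-2011 and is no longer updated.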

Clc1ccc(C(c2ccc(Cl)cc2)C(Cl)Cl)cc1
carcinogen call (Species: MOUSE, Strain/Sex: B6C3F1/FEMALE, Route: ORAL, Dose: 0, 411, 822 PPM IN DIET FOR 78 WK (STUDY DURATION: 93 WK), Dose: 0, 411, 822 PPM IN DIET FOR 78 WK (STUDY DURATION: 93 WK)): inactive; negative
carcinogen call (Species: MOUSE, Strain/Sex: B6C3F1/MALE, Route: ORAL, Dose: 0, 411, 822 PPM IN DIET FOR 78 WK (STUDY DURATION: 93 WK), Dose: 0, 411, 822 PPM IN DIET FOR 78 WK (STUDY DURATION: 93 WK)): inactive; negative
carcinogen call (Species: MOUSE, Strain/Sex: CF-1/MALE,FEMALE, Route: ORAL, Dose: 250 PPM IN DIET, Tumor Site: Type of Lesion: LUNG): active; positive
carcinogen call (Species: RAT, Strain/Sex: OSBORNE-MENDEL/FEMALE, Route: ORAL, Dose: 0, 850, 1700 PPM IN DIET FOR 78 WK (STUDY DURATION: 113 WK), Dose: 0, 850, 1700 PPM IN DIET FOR 78 WK (STUDY DURATION: 113 WK)): inactive; negative
carcinogen call (Species: RAT, Strain/Sex: OSBORNE-MENDEL/MALE, Route: ORAL, Dose: 0, 1647, 3294 PPM IN DIET FOR 78 WK (STUDY DURATION: 113 WK), Dose: 0, 1647, 3294 PPM IN DIET FOR 78 WK (STUDY DURATION: 113 WK), Tumor Site: Type of Lesion: THYROID GLAND: FOLLICULAR CELL CARCINOMA OR ADENOMA): equivocal

CCSCCC(N)C(=O)O (centres undefined)
carcinogen call (Species: RAT, Strain/Sex: F344/MALE, Route: ORAL, Dose: 0, 0.05% IN METHYL-DEFICIENT DIET FOR 8 MO, STUDY DURATION: 20 MO, Dose: 0, 0.05% IN METHYL-DEFICIENT DIET FOR 8 MO, STUDY DURATION: 20 MO, Tumor Site: Type of Lesion: LIVER: HEPATOCELLULAR CARCINOMA): active; positive
carcinogen call (Species: RAT, Strain/Sex: F344/MALE, Route: ORAL, Dose: 0.25% IN DIET FOR 24 WK, Tumor Site: Type of Lesion: LIVER): active; positive
carcinogen call (Species: RAT, Strain/Sex: OSBORNE-MENDEL/MALE,FEMALE, Route: ORAL, Dose: 0.25% IN BASAL DIET FOR 8-9 MO, Tumor Site: Type of Lesion: LIVER: CARCINOMA): active; positive
carcinogen call (Species: RAT, Strain/Sex: SPRAGUE-DAWLEY, Route: ORAL, Dose: 0.25% IN DIET FOR 8 MO, Tumor Site: Type of Lesion: LIVER: CARCINOMA): active; positive
carcinogen call (Species: RAT, Strain/Sex: WISTAR/MALE,FEMALE, Route: ORAL, Dose: 0.25% IN BASAL DIET FOR 8 MO THEN STOCK DIET FOR 2 MO, Tumor Site: Type of Lesion: LIVER: CARCINOMA): active; positive

CN1CSC(=S)N(C)C1
carcinogen call (Species: Mouse, Strain/Sex: B6C3F1/Female (50/Group), Route: Oral, Dose: 0, 6, 22, 93 mg/kg in diet for 78 wk, study duration 78 wk, Dose: 0, 6, 22, 93 mg/kg in diet for 78 wk, study duration 78 wk): inactive; negative
carcinogen call (Species: Mouse, Strain/Sex: B6C3F1/Male (50/Group), Route: Oral, Dose: 0, 4, 16, 68 mg/kg in diet for 78 wk, study duration 78 wk, Dose: 0, 4, 16, 68 mg/kg in diet for 78 wk, study duration 78 wk): inactive; negative
carcinogen call (Species: Rat, Strain/Sex: Wistar/Female (50/Group), Route: Oral, Dose: 0, 0.35, 1.37, 5.66 mg/kg in diet for 2 yr, study duration 2 yr): inactive; negative
carcinogen call (Species: Rat, Strain/Sex: Wistar/Male (50/Group), Route: Oral, Dose: 0, 0.27, 1.08, 4.43 mg/kg in diet for 2 yr, study duration 2 yr): inactive; negative

OCc1ccccc1
carcinogen call (Species: MOUSE, Strain/Sex: B6C3F1/F, Route: GAVAGE, Dose: 0, 100, 200 MG/KG IN CORN OIL 5D/WK FOR 103 WK (STUDY DURATION: 106 WK), Dose: 0, 100, 200 MG/KG IN CORN OIL 5D/WK FOR 103 WK (STUDY DURATION: 106 WK)): inactive; negative
carcinogen call (Species: MOUSE, Strain/Sex: B6C3F1/M, Route: GAVAGE, Dose: 0, 100, 200 MG/KG IN CORN OIL 5D/WK FOR 103 WK (STUDY DURATION: 106 WK), Dose: 0, 100, 200 MG/KG IN CORN OIL 5D/WK FOR 103 WK (STUDY DURATION: 106 WK)): inactive; negative
carcinogen call (Species: RAT, Strain/Sex: F344/F, Route: GAVAGE, Dose: 0, 200, 400 MG/KG IN CORN OIL 5D/WK FOR 103 WK (STUDY DURATION: 105 WK), Dose: 0, 200, 400 MG/KG IN CORN OIL 5D/WK FOR 103 WK (STUDY DURATION: 105 WK)): inactive; negative
carcinogen call (Species: RAT, Strain/Sex: F344/M, Route: GAVAGE, Dose: 0, 200, 400 MG/KG IN CORN OIL 5D/WK FOR 103 WK (STUDY DURATION: 105 WK), Dose: 0, 200, 400 MG/KG IN CORN OIL 5D/WK FOR 103 WK (STUDY DURATION: 105 WK)): inactive; negative

Cn1cc(-c2ccccc2)c(=O)c(-c2cccc(C(F)(F)F)c2)c1
carcinogen call (Species: Mouse, Strain/Sex: ICR/Female (60?/Group), Route: Oral, Dose: 0, 33, 100, 330 ppm (0; 4.0; 12.3; 34.5 mg/kg/day) of 97.2-97.8% fluridone in diet for 2 yr, study duration 2 yr, Dose: 0, 33, 100, 330 ppm (0; 4.0; 12.3; 34.5 mg/kg/day) of 97.2-97.8% fluridone in diet for 2 yr, study duration 2 yr): inactive; negative. (possible increased incidence of skin fibrosarcomas in high dose femal
carcinogen call (Species: Mouse, Strain/Sex: ICR/Male (60?/Group), Route: Oral, Dose: 0, 33, 100, 330 ppm (0; 3.5; 10.9; 30.7 mg/kg/day) of 97.2-97.8% fluridone in diet for 2 yr, study duration 2 yr, Dose: 0, 33, 100, 330 ppm (0; 3.5; 10.9; 30.7 mg/kg/day) of 97.2-97.8% fluridone in diet for 2 yr, study duration 2 yr): inactive; negative
carcinogen call (Species: Rat, Strain/Sex: Fischer 344/Female (60/Group), Route: Oral, Dose: 0, 200, 650, 2000 ppm of 97.2-97.8% fluridone in diet for 2 yr, study duration 2 yr, Dose: 0, 200, 650, 2000 ppm of 97.2-97.8% fluridone in diet for 2 yr, study duration 2 yr): inactive; negative
carcinogen call (Species: Rat, Strain/Sex: Fischer 344/Male (60/Group), Route: Oral, Dose: 0, 200, 650, 2000 ppm of 97.2-97.8% fluridone in diet for 2 yr, study duration 2 yr, Dose: 0, 200, 650, 2000 ppm of 97.2-97.8% fluridone in diet for 2 yr, study duration 2 yr): inactive; negative

CC1=C(C)C(=O)C(C(CCCCCC(=O)O)c2ccccc2)=C(C)C1=O (centres undefined)
carcinogen call (Species: RAT, Strain/Sex: F344/FEMALE, Route: ORAL, Dose: 0, 3, 10, 30, 100 MG/KG/D IN THE DIET FOR 52 WK (STUDY DURATION: 52 WK), Dose: 0, 3, 10, 30, 100 MG/KG/D IN THE DIET FOR 52 WK (STUDY DURATION: 52 WK)): inactive; negative
carcinogen call (Species: RAT, Strain/Sex: F344/MALE, Route: ORAL, Dose: 0, 3, 10, 30, 100 MG/KG/D IN THE DIET FOR 52 WK (STUDY DURATION: 52 WK), Dose: 0, 3, 10, 30, 100 MG/KG/D IN THE DIET FOR 52 WK (STUDY DURATION: 52 WK)): inactive; negative
